Assay results from patent US7067251B2 (priority 2000, dated 2006).

Test system: C3H10T½ cells
Format: cell-based, murine

Structure (SMILES): NC(=O)NO [HU, hydroxyurea]
- Type X collagen synthesis: induces type X collagen synthesis
